Results on 39 compounds are retold here after patent US9102623B2, “Pyridinecarboxamides, useful-plant-protecting composition comprising them and processes for their preparation and their use” (Bayer Cropscience AG, priority 2007, dated 2015).

For assay [1], the system named is corn. Description: Post-emergence safener action in corn with the herbicide tembotrione. The note with it: greenhouse, visual scoring of damage. It counts as in vivo. The source says:
(§1) The damage to the plants is scored visually using a scale of 0-100%, in comparison to control plants:
(§2) 0%=no noticeable effect compared to the untreated plant
(§3) 100%=the treated plants dies.
(§4) Seeds or rhizome pieces of monocotyledonous and dicotyledonous harmful plants and crop plants are placed in sandy loam soil in plastic pots, covered with soil and cultivated in the greenhouse under good growth conditions. Alternatively, harmful plants encountered in paddy rice cultivation are cultivated in pots in which the surface of the soil is covered by up to 2 cm of water. Three weeks after sowing, the test plants are treated at the three-leaf stage. The herbicide/safener active compound combinations according to the invention, formulated as emulsion concentrates, and in parallel tests the individual active compounds formulated in a corresponding manner, are sprayed at various dosages at a water application rate of […] (converted) onto the green parts of the plants, and, after the test plants were left to stand in the greenhouse for about 2 to 3 weeks under optimum growth conditions, the effect of the preparations is scored visually in comparison to untreated controls. In the case of rice or harmful plants encountered in the cultivation of rice, the active compounds are also added directly to the irrigation water (application analogously to the so-called granule application) or sprayed onto the plants and into the irrigation water. […]

For assay [2], the system named is barley. Description: Post-emergence safener action in barley with the herbicide mesosulfuron-methyl. Format: in vivo. To be noted: greenhouse, visual scoring of damage.
Text: as §1, §2, §3, §4

`CC(C)NC(=O)c1ccc(C(F)(F)F)[nH]c1=O` [Compound 4]: in assay [1], the “safener action for the herbicide tembotrione” value is “good safener action”.

On to `CCCCNC(=O)c1ccc(C(F)(F)F)[nH]c1=O` [Compound 6], for which the “safener action for the herbicide tembotrione” value in assay [1] is “good safener action”.

For the compound `CN(C)C(=O)c1ccc(C(F)(F)F)[nH]c1=O` [Compound 9], the “safener action for the herbicide mesosulfuron-methyl” value in assay [2] is reported as “good safener action”. In addition, in assay [1], the “safener action for the herbicide tembotrione” value is on record as “good safener action”.

With `CCN(C)C(=O)c1ccc(C(F)(F)F)[nH]c1=O` [Compound 10], in assay [2], the “safener action for the herbicide mesosulfuron-methyl” value is “good safener action”. Moreover, the “safener action for the herbicide tembotrione” value in assay [1] was “good safener action”.

On to `CCN(CC)C(=O)c1ccc(C(F)(F)F)[nH]c1=O` [Compound 14], for which the “safener action for the herbicide mesosulfuron-methyl” value in assay [2] is “good safener action”. The “safener action for the herbicide tembotrione” value in assay [1] was “good safener action”.

Consider `CC(C)(C)CNC(=O)c1ccc(C(F)(F)F)[nH]c1=O` [Compound 24], for which the “safener action for the herbicide tembotrione” value in assay [1] is on record as “good safener action”.

For the compound `CC(C)CCNC(=O)c1ccc(C(F)(F)F)[nH]c1=O` [Compound 32], in assay [1], the “safener action for the herbicide tembotrione” value is given as “good safener action”.

On to `C=CCNC(=O)c1ccc(C(F)(F)F)[nH]c1=O` [Compound 34], for which the “safener action for the herbicide mesosulfuron-methyl” value in assay [2] is given as “good safener action”. In addition, in assay [1], the “safener action for the herbicide tembotrione” value was “good safener action”.

Regarding `C=CCN(CC=C)C(=O)c1ccc(C(F)(F)F)[nH]c1=O` [Compound 36], the “safener action for the herbicide mesosulfuron-methyl” value in assay [2] is “good safener action”. In addition, the “safener action for the herbicide tembotrione” value in assay [1] is given as “good safener action”.

Regarding `CCCC(C)NC(=O)c1ccc(C(F)(F)F)[nH]c1=O` (stereo not shown) [Compound 43], in assay [1], the “safener action for the herbicide tembotrione” value is “good safener action”.

For the compound `CCC(CC)NC(=O)c1ccc(C(F)(F)F)[nH]c1=O` [Compound 51], in assay [1], the “safener action for the herbicide tembotrione” value is recorded as “good safener action”.

As to `COCC(C)NC(=O)c1ccc(C(F)(F)F)[nH]c1=O` (stereo not shown) [Compound 64], the “safener action for the herbicide mesosulfuron-methyl” value in assay [2] was “good safener action”. The “safener action for the herbicide tembotrione” value in assay [1] is on record as “good safener action”.

With `COCCCNC(=O)c1ccc(C(F)(F)F)[nH]c1=O` [Compound 66], in assay [2], the “safener action for the herbicide mesosulfuron-methyl” value was “good safener action”. Also, the “safener action for the herbicide tembotrione” value in assay [1] is listed as “good safener action”.

As to `COC(=O)CNC(=O)c1ccc(C(F)(F)F)[nH]c1=O` [Compound 71], the “safener action for the herbicide tembotrione” value in assay [1] was “good safener action”.

`COC(=O)CCNC(=O)c1ccc(C(F)(F)F)[nH]c1=O` [Compound 75]: in assay [1], the “safener action for the herbicide tembotrione” value is “good safener action”.

In the case of `CCONC(=O)c1ccc(C(F)(F)F)[nH]c1=O` [Compound 79], the “safener action for the herbicide mesosulfuron-methyl” value in assay [2] was “good safener action”. For the same compound, the “safener action for the herbicide tembotrione” value in assay [1] is listed as “good safener action”.

Regarding `O=C(NCc1ccc(Cl)nc1)c1ccc(C(F)(F)F)[nH]c1=O` [Compound 95], in assay [1], the “safener action for the herbicide tembotrione” value is reported as “good safener action”.

Take `CN(C)/C=N/C(=O)c1ccc(C(F)(F)F)[nH]c1=O` [Compound 105, N-[(Dimethylamino)methylene]-2-oxo-6-(trifluoromethyl)-1,2-dihydropyridine-3-carboxamide]: in assay [2], the “safener action for the herbicide mesosulfuron-methyl” value is listed as “good safener action”. The “safener action for the herbicide tembotrione” value in assay [1] is “good safener action”.

Turning to `NC(=O)c1ccc(C(F)(F)Cl)[nH]c1=O` [Compound 114], the “safener action for the herbicide mesosulfuron-methyl” value in assay [2] is “good safener action”. The “safener action for the herbicide tembotrione” value in assay [1] is “good safener action”.

For `CC(C)NC(=O)c1ccc(C(F)(F)Cl)[nH]c1=O` [Compound 118], the “safener action for the herbicide tembotrione” value in assay [1] is on record as “good safener action”.

As for `O=C(NCC(F)(F)F)c1ccc(C(F)(F)Cl)[nH]c1=O` [Compound 140], in assay [2], the “safener action for the herbicide mesosulfuron-methyl” value is recorded as “good safener action”. Also, in assay [1], the “safener action for the herbicide tembotrione” value is recorded as “good safener action”.

With `CC(C)CCNC(=O)c1ccc(C(F)(F)Cl)[nH]c1=O` [Compound 146], the “safener action for the herbicide mesosulfuron-methyl” value in assay [2] was “good safener action”. Besides, the “safener action for the herbicide tembotrione” value in assay [1] is listed as “good safener action”.

As to `C=CCNC(=O)c1ccc(C(F)(F)Cl)[nH]c1=O` [Compound 148], the “safener action for the herbicide mesosulfuron-methyl” value in assay [2] was “good safener action”. Also, the “safener action for the herbicide tembotrione” value in assay [1] is reported as “good safener action”.

As to `CC(NC(=O)c1ccc(C(F)(F)Cl)[nH]c1=O)c1ccccc1` (stereo not shown) [Compound 210], the “safener action for the herbicide tembotrione” value in assay [1] is “good safener action”.

For `CNC(=O)c1cc(Cl)c(C(F)(F)F)[nH]c1=O` [Compound 456], the “safener action for the herbicide tembotrione” value in assay [1] is given as “good safener action”.

With `CCNC(=O)c1cc(Br)c(C(F)F)[nH]c1=O` [Compound 1139], the “safener action for the herbicide tembotrione” value in assay [1] is recorded as “good safener action”.

Regarding `CC(C)NC(=O)c1ccc(C(F)(F)C(F)F)[nH]c1=O` [Compound 1371], in assay [1], the “safener action for the herbicide tembotrione” value is reported as “good safener action”.

Consider `NC(=O)c1ccc(C(F)(F)C(F)(F)Cl)[nH]c1=O` [Compound 1481, 6-(2-Chloro-1,1,2,2-tetrafluoroethyl)-2-oxo-1,2-dihydropyridine-3-carboxamide], for which, in assay [2], the “safener action for the herbicide mesosulfuron-methyl” value is on record as “good safener action”.

Consider `CC(C)NC(=O)c1ccc(C(F)(F)C(F)(F)Cl)[nH]c1=O` [Compound 1485], for which the “safener action for the herbicide tembotrione” value in assay [1] is given as “good safener action”.

Consider `CCCCNC(=O)c1ccc(C(F)(F)C(F)(F)Cl)[nH]c1=O` [Compound 1487], for which the “safener action for the herbicide mesosulfuron-methyl” value in assay [2] was “good safener action”.

Consider `O=C(NC1CCC1)c1ccc(C(F)(F)C(F)(F)Cl)[nH]c1=O` [Compound 1488], for which the “safener action for the herbicide tembotrione” value in assay [1] is “good safener action”.

On to `CNC(=O)c1ccc(C(F)(F)C(F)(F)C(F)(F)F)[nH]c1=O` [Compound 1596], for which, in assay [1], the “safener action for the herbicide tembotrione” value is “good safener action”.

Regarding `CN(C)C(=O)c1ccc(C(F)(F)C(F)(F)C(F)(F)F)[nH]c1=O` [Compound 1604], the “safener action for the herbicide tembotrione” value in assay [1] is on record as “good safener action”.

Consider `CC(C)(C)CNC(=O)c1ccc(C(F)(F)C(F)(F)C(F)(F)F)[nH]c1=O` [Compound 1619], for which the “safener action for the herbicide tembotrione” value in assay [1] is given as “good safener action”.

On to `C=CCNC(=O)c1ccc(C(F)(F)C(F)(F)C(F)(F)F)[nH]c1=O` [Compound 1629], for which, in assay [1], the “safener action for the herbicide tembotrione” value is “good safener action”.

In the case of `CCCC(C)NC(=O)c1ccc(C(F)(F)C(F)(F)C(F)(F)F)[nH]c1=O` (stereo not shown) [Compound 1638], the “safener action for the herbicide tembotrione” value in assay [1] was “good safener action”.

Take `CCC(CC)NC(=O)c1ccc(C(F)(F)C(F)(F)C(F)(F)F)[nH]c1=O` [Compound 1646]: the “safener action for the herbicide tembotrione” value in assay [1] was “good safener action”.

Take `O=C(NC1CCC1)c1cc(Br)c(C(F)(F)C(F)(F)C(F)(F)F)[nH]c1=O` [Compound 1758]: in assay [1], the “safener action for the herbicide tembotrione” value was “good safener action”.

In the case of `CCC(CC)NC(=O)c1cc(I)c(C(F)(F)Cl)[nH]c1=O` [Compound 1907, 6-[Chloro(difluoro)methyl]-N-(1-ethylpropyl)-5-iodo-2-oxo-1,2-dihydropyridine-3-carboxamide], in assay [2], the “safener action for the herbicide mesosulfuron-methyl” value is on record as “good safener action”.
